{"source": "patent US20220306617A1", "about": "“SUBSTITUTED 1,3-PHENYL HETEROARYL DERIVATIVES AND THEIR USE IN THE TREATMENT OF DISEASE” (NOVARTIS AG, priority 2019, published 2022)", "biological_target": "T1, abc isoform of human TMEM16A channel expressed in CHO cells (Homo sapiens, UniProt Q5XXA6, DEL476-501)", "T1 construct": "expressed in transfected cells; host or cells: CHO cells, doxycycline-inducible expression under Blasticidin/Zeocin selection", "T1 sequence (Q5XXA6 with tags, fused parts or gaps isoform Q5XXA6-5 DEL539-564)": "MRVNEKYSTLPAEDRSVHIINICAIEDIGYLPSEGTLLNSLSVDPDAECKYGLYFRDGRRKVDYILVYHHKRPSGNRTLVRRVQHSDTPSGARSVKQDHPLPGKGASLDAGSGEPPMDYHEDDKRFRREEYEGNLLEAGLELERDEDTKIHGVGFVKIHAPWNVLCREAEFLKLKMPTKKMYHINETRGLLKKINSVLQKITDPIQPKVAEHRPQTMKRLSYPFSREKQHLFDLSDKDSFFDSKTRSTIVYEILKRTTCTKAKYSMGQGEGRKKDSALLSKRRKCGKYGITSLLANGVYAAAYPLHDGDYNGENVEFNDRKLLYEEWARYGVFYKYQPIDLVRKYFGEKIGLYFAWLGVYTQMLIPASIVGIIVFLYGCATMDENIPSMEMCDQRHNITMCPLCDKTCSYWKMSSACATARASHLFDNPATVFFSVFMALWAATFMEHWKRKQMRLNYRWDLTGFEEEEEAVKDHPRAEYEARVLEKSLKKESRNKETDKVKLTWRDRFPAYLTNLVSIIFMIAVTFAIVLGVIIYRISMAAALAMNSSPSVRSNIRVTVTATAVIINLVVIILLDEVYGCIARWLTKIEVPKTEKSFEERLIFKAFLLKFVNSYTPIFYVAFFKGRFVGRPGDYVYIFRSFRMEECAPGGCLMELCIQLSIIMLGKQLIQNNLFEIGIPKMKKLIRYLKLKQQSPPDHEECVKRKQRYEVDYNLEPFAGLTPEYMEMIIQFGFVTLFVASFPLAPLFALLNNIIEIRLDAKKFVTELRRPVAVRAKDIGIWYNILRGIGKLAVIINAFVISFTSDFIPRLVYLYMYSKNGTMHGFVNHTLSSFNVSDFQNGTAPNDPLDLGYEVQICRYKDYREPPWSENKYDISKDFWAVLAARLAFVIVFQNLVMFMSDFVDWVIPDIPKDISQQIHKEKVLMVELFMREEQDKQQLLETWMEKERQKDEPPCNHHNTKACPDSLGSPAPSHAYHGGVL", "assay": "Automated patch clamping (QPatch) assay to measure TMEM16A activity in whole-cell", "format": "cell-based", "details": "for EC50: CHO cells expressing human TMEM16A (abc), whole-cell automated patch clamp, Hill fit, read-out: TMEM16A QPATCH assay EC50 V3 EC50; for Emax: CHO, maximum current at highest dose relative to reference potentiator at maximal concentration (upper limit) and vehicle (lower limit), read-out: TMEM16A QPATCH assay EC50 V3 Assay Window (% TMEM16A max activation)", "method_in_brief": "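Whole-cell currents were recorded by planar automated patch clamp from induced CHO cells (doxycycline 1 μg/mL, 18-24 h), using a −70 mV hold, +70 mV step and −90 to +70 mV ramp. Values: Hill-fitted EC50, and activation scaled between vehicle current and reference-potentiator maximum; 0.3% DMSO final.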", "note": "Structures can show the parent of a compound that is named as a salt.", "data": [{"smiles": "C[C@H](NC(=O)c1cnc(-c2cccc(-c3nc(C(=O)N[C@@H](C)C4CC4)n(CCO)n3)c2)o1)C1CC1", "note": "[Example 16.1, N-((S)-1-Cyclopropylethyl)-2-(3-(5-(((S)-1-Cyclopropylethyl)Carbamoyl)-1-(2-Hydroxyethyl)-1H-1,2,4-Triazol-3-Yl)Phenyl)Oxazole-5-Carboxamide]", "values": [{"measurement": "EC50", "result": 460, "unit": "nM"}, {"measurement": "Emax", "result": 102, "unit": "%"}]}, {"smiles": "CCOC(=O)[C@@H](NC(=O)c1cnc(-c2cccc(-c3cc(C(=O)NC(CC)CC)n[nH]3)c2)o1)c1ccccc1", "note": "[Example 1.36, (S)-Ethyl 2-(2-(3-(3-(Pentan-3-Ylcarbamoyl)-1 H-Pyrazol-5-Yl)Phenyl)Oxazole-5-Carboxamido)-2-Phenylacetate]", "values": [{"measurement": "EC50", "result": 1100, "unit": "nM"}, {"measurement": "Emax", "result": 102, "unit": "%"}]}, {"smiles": "CCOC(=O)[C@@H](NC(=O)c1cnc(-c2cccc(-c3cc(C(=O)NC(CC)C(F)(F)F)[nH]n3)c2)o1)C(C)C", "note": "(stereo partly drawn) [Example 1.22, (2S)-Ethyl 3-Methyl-2-(2-(3-(5-((1,1,1-Trifluorobutan-2-Yl)Carbamoyl)-1H-Pyrazol-3-Yl)Phenyl)Oxazole-5-Carboxamido)Butanoate]", "values": [{"measurement": "EC50", "result": 30, "unit": "nM"}, {"measurement": "Emax", "result": 119, "unit": "%"}]}, {"smiles": "CCOC(=O)[C@@H](NC(=O)c1nnc(-c2cccc(-c3ncc(C(=O)N[C@@H](C)C4CC4)o3)c2)[nH]1)C(C)C", "note": "[Example 13.6, (S)-Ethyl 2-(5-(3-(5-(((S)-1-Cyclopropylethyl)Carbamoyl)Oxazol-2-Yl)Phenyl)-4H-1,2,4-Triazole-3-Carboxamido)-3-Methylbutanoate]", "values": [{"measurement": "EC50", "result": 370, "unit": "nM"}, {"measurement": "Emax", "result": 97, "unit": "%"}]}, {"smiles": "CCC(CC)NC(=O)c1cnc(-c2cccc(-c3nnc(C(=O)NC(CC)CC)n3CCOC)c2)o1", "note": "[Example 15.5, 2-(3-(4-(2-Methoxyethyl)-5-(Pentan-3-Ylcarbamoyl)-4H-1,2,4-Triazol-3-Yl)Phenyl)-N-(Pentan-3-Yl)Oxazole-5-Carboxamide]", "values": [{"measurement": "EC50", "result": 440, "unit": "nM"}, {"measurement": "Emax", "result": 83, "unit": "%"}]}, {"smiles": "CCC(CC)NC(=O)c1cnc(-c2cccc(-c3nnc(C(=O)N[C@@H](C)C4CC4)[nH]3)c2)o1", "note": "[Example 14.0, (S)-2-(3-(5-((1-Cyclopropylethyl)Carbamoyl)-4H-1,2,4-Triazol-3-Yl)Phenyl)-N-(Pentan-3-Yl)Oxazole-5-Carboxamide]", "values": [{"measurement": "EC50", "result": 580, "unit": "nM"}, {"measurement": "Emax", "result": 177, "unit": "%"}]}, {"smiles": "CCC(CC)NC(=O)c1cnc(-c2cccc(-c3cc(C(=O)N[C@@H](CC(C)C)C(=O)NCC(=O)OC(C)(C)C)n[nH]3)c2)o1", "note": "[Example 3.57, (S)-Tert-Butyl 2-(4-Methyl-2-(5-(3-(5-(Pentan-3-Ylcarbamoyl)Oxazol-2-Yl)Phenyl)-1H-Pyrazole-3-Carboxamido)Pentanamido)Acetate]", "values": [{"measurement": "EC50", "result": 650, "unit": "nM"}, {"measurement": "Emax", "result": 111, "unit": "%"}]}, {"smiles": "CCC(CC)NC(=O)c1cnc(-c2cccc(-c3cc(C(=O)NC4CCCC4)n[nH]3)c2)o1", "note": "[Example 3.48, 2-(3-(3-(Cyclopentylcarbamoyl)-1 H-Pyrazol-5-Yl)Phenyl)-N-(Pentan-3-yl)Oxazole-5-Carboxamide]", "values": [{"measurement": "EC50", "result": 120, "unit": "nM"}, {"measurement": "Emax", "result": 74, "unit": "%"}]}, {"smiles": "C[C@H](NC(=O)c1nnc(-c2cccc(-c3ncc(C(=O)N[C@@H](C)C4CC4)o3)c2)[nH]1)C1CC1", "note": "[Example 12.0, N-((S)-1-Cyclopropylethyl)-2-(3-(5-(((S)-1-Cyclopropylethyl)Carbamoyl)-4H-1,2,4-Triazol-3-Yl)Phenyl)Oxazole-5-Carboxamide]", "values": [{"measurement": "EC50", "result": 300, "unit": "nM"}, {"measurement": "Emax", "result": 63, "unit": "%"}]}, {"smiles": "C[C@H](NC(=O)c1cc(-c2cccc(-c3ncc(C(=O)N[C@H](C)C4CC4)o3)c2)nn1CCO)C1CC1", "note": "[Example 10.2, N-((R)-1-Cyclopropylethyl)-2-(3-(5-(((S)-1-Cyclopropylethyl)Carbamoyl)-1-(2-Hydroxyethyl)-1H-Pyrazol-3-Yl)Phenyl)Oxazole-5-Carboxamide]", "values": [{"measurement": "EC50", "result": 680, "unit": "nM"}, {"measurement": "Emax", "result": 108, "unit": "%"}]}, {"smiles": "CCOC(=O)[C@H](Cc1ccccc1)NC(=O)c1cc(-c2cccc(-c3ncc(C(=O)NC(CC)CC)o3)c2)[nH]n1", "note": "[Example 3.66, (S)-Ethyl 2-(5-(3-(5-(Pentan-3-Ylcarbamoylyl-Carbamoyl)Oxazol-2-Yl)Phenyl)-1H-Pyrazole-3-Carboxamido)-3-Phenylpropanoate Trifluoroacetate]", "values": [{"measurement": "EC50", "result": 140, "unit": "nM"}, {"measurement": "Emax", "result": 80, "unit": "%"}]}, {"smiles": "CCC(CC)NC(=O)c1cc(-c2cccc(-c3ncc(C(=O)Nc4cc(C)cc(C)c4)o3)c2)[nH]n1", "note": "[Example 1.3]", "values": [{"measurement": "EC50", "result": 560, "unit": "nM"}, {"measurement": "Emax", "result": 82, "unit": "%"}]}, {"smiles": "CCC(CC)NC(=O)c1cnc(-c2cccc(-c3cc(C(=O)N[C@@H](C)C4CC4)n(C)n3)c2)o1", "note": "[Example 6.2, (S)-2-(3-(5-((1-Cyclopropylethyl)Carbamoyl)-1-Methyl-1H-Pyrazol-3-Yl)Phenyl)-N-(Pentan-3-Yl)Oxazole-5-Carboxamide]", "values": [{"measurement": "EC50", "result": 50, "unit": "nM"}, {"measurement": "Emax", "result": 131, "unit": "%"}]}, {"smiles": "CCOC(=O)[C@@H](NC(=O)c1cnc(-c2cccc(-c3cc(C(=O)NC(C)C(F)(F)F)[nH]n3)c2)o1)C(C)C", "note": "(stereo partly drawn) [Example 3.55, (2S)-Ethyl 3-Methyl-2-(2-(3-(5-((1,1,1-Trifluoropropan-2-Yl)Carbamoyl)-1H-Pyrazol-3-Yl)Phenyl)Oxazole-5-Carboxamido)Butanoate]", "values": [{"measurement": "EC50", "result": 20, "unit": "nM"}, {"measurement": "Emax", "result": 69, "unit": "%"}]}, {"smiles": "CCOC(=O)[C@@H](NC(=O)c1cnc(-c2cccc(-c3nc(C(=O)NC(C4CC4)C(F)(F)F)n[nH]3)c2)o1)C(C)C", "note": "(stereo partly drawn) [Example 12.14]", "values": [{"measurement": "EC50", "result": 80, "unit": "nM"}, {"measurement": "Emax", "result": 97, "unit": "%"}]}, {"smiles": "CCC(CC)NC(=O)c1cnc(-c2cccc(-c3cc(C(=O)N[C@@H](C)c4ccccc4)n[nH]3)c2)o1", "note": "[Example 3.38, (S)-N-(Pentan-3-Yl)-2-(3-(3-((1-Phenylethyl)Carbamoyl)-1H-Pyrazol-5-yl)Phenyl)Oxazole-5-Carboxamide]", "values": [{"measurement": "EC50", "result": 150, "unit": "nM"}, {"measurement": "Emax", "result": 100, "unit": "%"}]}, {"smiles": "CCC(CC)NC(=O)c1cnc(-c2cccc(-c3cc(C(=O)NCc4ccccc4)n[nH]3)c2)o1", "note": "[Example 3.16, 2-(3-(3-(Benzylcarbamoyl)-1H-Pyrazol-5-Yl)Phenyl)-N-(Pentan-3-Yl)Oxazole-5-Carboxamide]", "values": [{"measurement": "EC50", "result": 140, "unit": "nM"}, {"measurement": "Emax", "result": 67, "unit": "%"}]}, {"smiles": "CCC(CC)NC(=O)c1cnc(-c2cccc(-c3cc(C(=O)N[C@@H](C)C4CC4)n[nH]3)c2)o1", "note": "[Example 3.25, (S)-2-(3-(3-((1-Cyclopropylethyl)Carbamoyl)-1H-Pyrazol-5-Yl)Phenyl)-N-(Pentan-3-Yl)Oxazole-5-Carboxamide]", "values": [{"measurement": "EC50", "result": 40, "unit": "nM"}, {"measurement": "Emax", "result": 90, "unit": "%"}]}, {"smiles": "CCC(CC)NC(=O)c1cc(-c2cccc(-c3ncc(C(=O)N[C@H](C)C(C)C)o3)c2)[nH]n1", "note": "[Example 1.46, (R)-N-(3-Methylbutan-2-Yl)-2-(3-(3-(Pentan-3-Ylcarbamoyl)-1 H-Pyrazol-5-yl)Phenyl)Oxazole-5-Carboxamide]", "values": [{"measurement": "EC50", "result": 990, "unit": "nM"}, {"measurement": "Emax", "result": 19, "unit": "%"}]}, {"smiles": "CCC(CC)NC(=O)c1cnc(-c2cccc(-c3cc(C(=O)N[C@@H](C)C(=O)OC)n[nH]3)c2)o1", "note": "[Example 3.42, (S)-Methyl 2-(5-(3-(5-(Pentan-3-Ylcarbamoyl)Oxazol-2-Yl)Phenyl)-1H-Pyrazole-3-Carboxamido)Propanoate]", "values": [{"measurement": "EC50", "result": 690, "unit": "nM"}, {"measurement": "Emax", "result": 86, "unit": "%"}]}, {"smiles": "CCC(CC)NC(=O)c1cnc(-c2cccc(-c3cc(C(=O)N[C@@H](Cc4ccccc4)C(=O)OC)n[nH]3)c2)o1", "note": "[Example 3.50, (S)-Methyl 2-(5-(3-(5-(Pentan-3-Ylcarbamoyl)Oxazol-2-Yl)Phenyl)-1H-Pyrazole-3-Carboxamido)-3-Phenylpropanoate]", "values": [{"measurement": "EC50", "result": 350, "unit": "nM"}, {"measurement": "Emax", "result": 70, "unit": "%"}]}, {"smiles": "C[C@H](NC(=O)c1nnc(-c2cccc(-c3ncc(C(=O)NC45CC6CC(CC(C6)C4)C5)o3)c2)[nH]1)C1CC1", "note": "[Example 12.16, (S)-N-(Adamantan-1-Yl)-2-(3-(5-((1-Cyclopropylethyl)Carbamoyl)-4H-1,2,4-Triazol-3-Yl)Phenyl)Oxazole-5-Carboxamide]", "values": [{"measurement": "EC50", "result": 420, "unit": "nM"}, {"measurement": "Emax", "result": 85, "unit": "%"}]}, {"smiles": "CCC(CC)NC(=O)c1cnc(-c2cccc(-c3cc(C(=O)NCc4c(F)cccc4F)n[nH]3)c2)o1", "note": "[Example 3.34, 2-(3-(3-((2,6-Difluorobenzyl)Carbamoyl)-1 H-Pyrazol-5-Yl)Phenyl)-N-(Pentan-3-Yl)Oxazole-5-Carboxamide]", "values": [{"measurement": "EC50", "result": 220, "unit": "nM"}, {"measurement": "Emax", "result": 77, "unit": "%"}]}, {"smiles": "COC(=O)[C@H](CC(C)C)NC(=O)c1cnc(-c2cccc(-c3nnc(C(=O)N[C@@H](C)C4CC4)[nH]3)c2)o1", "note": "[Example 12.13]", "values": [{"measurement": "EC50", "result": 290, "unit": "nM"}, {"measurement": "Emax", "result": 99, "unit": "%"}]}]}
